Hepatic toxicity, IC50 and EC50 data for 13 molecules are collected here from patent US10150747B2, “Compounds for the treatment of hepatitis C” (BRISTOL-MYERS SQUIBB COMPANY, priority 2015, dated 2018).

In general, IC50 refers to the concentration needed to halve the response being measured. A low value points to greater potency in that assay. In general, EC50 refers to the midpoint of the concentration-response curve.

SMILES strings stand for the structures.

One data set deals with HCV. The following applies: extended dosing of the combination regimens with interferon and ribavirin; cited from earlier work.
The target in data set [1] is HCV NS5B genotype 1b (Con1) (Hepatitis C virus genotype 1b (isolate Con1) (HCV), UniProt Q9WMX2). The experiment in a line: HCV NS5B RdRp enzyme assay (1b enzyme). The class given is biochemical. The following applies: genotype 1b NS5B enzyme. As to the method:
HCV NS5B RdRp Cloning, Expression, and Purification.
The cDNA encoding NS5B proteins of HCV genotype 1b (Con1), a genotype 1b variant with amino acid 316 mutated from cysteine to asparagine, and genotype 2a (JFH-1), were cloned into the pET21a expression vector. Each untagged protein was expressed with an 18 amino acid C-terminal truncation to enhance the solubility. The E. coli competent cell line BL21(DE3) was used for expression of the protein. Cultures were grown at 37° C. for ˜4 hours until the cultures reached an optical density of 2.0 at 600 nm. The cultures were cooled to 20° C. and induced with 1 mM IPTG. Fresh ampicillin was added to a final concentration of 50 μg/mL and the cells were grown overnight at 20° C.
The lysis buffer consisted of 20 mM Tris-HCl, pH 7.4, 500 mM NaCl, 0.5% triton X-100, 1 mM DTT, 1 mM EDTA, 20% glycerol, 0.5 mg/mL lysozyme, 10 mM MgCl2, 15 ug/mL deoxyribonuclease I, and Complete TM protease inhibitor tablets (Roche). After addition of the lysis buffer, frozen cell pellets were resuspended using a tissue homogenizer. To reduce the viscosity of the sample, aliquots of the lysate were sonicated on ice using a microtip attached to a Branson sonicator. The sonicated lysate was centrifuged at 100,000×g for 30 minutes at 4° C. and filtered through a 0.2 μm filter unit (Corning).
The protein was purified using two sequential chromatography steps: Heparin sepharose CL-6B and polyU sepharose 4B. The chromatography buffers were identical to the lysis buffer but contained no lysozyme, deoxyribonuclease I, MgCl2 or protease inhibitor and the NaCl concentration of the buffer was adjusted according to the requirements for charging the protein onto the column. Each column was eluted with a NaCl gradient which varied in length from 5-50 column volumes depending on the column type. […] The enzyme was aliquoted and stored at −80° C.
HCV NS5B RdRp Enzyme Assay.
An on-bead solid phase homogeneous assay was used in a 384-well format to assess NS5B inhibitors (WangY-K, Rigat K, Roberts S, and Gao M (2006) Anal Biochem, 359: 106-111). The biotinylated oligo dT12 primer was captured on streptavidin-coupled imaging beads (GE, RPNQ0261) by mixing primer and beads in 1× buffer and incubating at room temperature for three hours. Unbound primer was removed after centrifugation. The primer-bound beads were resuspended in 3× reaction mix (20 mM Hepes buffer, pH 7.5, dT primer coupled beads, poly A template, ^3H-UTP, and RNAse inhibitor (Promega N2515)). Compounds were serially diluted 1:3 in DMSO and aliquoted into assay plates. Equal volumes (5 μL) of water, 3× reaction mix, and enzyme in 3× assay buffer (60 mM Hepes buffer, pH 7.5, 7.5 mM MgCl2, 7.5 mM KCl, 3 mM DTT, 0.03 mg/mL BSA, 6% glycerol) were added to the diluted compound on the assay plate. Final concentration of components in 384-well assay: 0.36 nM template, 15 nM primer, 0.29 μM ^3H-UTP (0.3 μCi), 1.6 U/4 RNAse inhibitor, 7 nM NS5B enzyme, 0.01 mg/mL BSA, 1 mM DTT, and 0.33 μg/μL beads, 20 mM Hepes buffer, pH 7.5, 2.5 mM MgCl2, 2.5 mM KCl, and 0.1% DMSO.
Reactions were allowed to proceed for 24 hours at 30° C. and terminated by the addition of 50 mM EDTA (5 μL). After incubating for at least 15 minutes, plates were read on an Amersham LEADseeker multimodality imaging system.
IC50 values for compounds were determined using ten different [I]. IC50 values were calculated from the inhibition using the four-parameter logistic formula y=A+((B−A)/(1+((C/x)^D))), where A and B denote minimal and maximal % inhibition, respectively, C is the IC50, D is hill slope and x represents compound concentration.

In data set [2] the test system is genotype 1b (Con-1) HCV replicon in Huh-7 cells. Briefly: HCV replicon luciferase assay (1b replicon). The class given is cell-based. The following applies: Hepatitis C virus, 72 h; genotype 1b replicon, Huh-7, Renilla luciferase, 3 days incubation; read-out: EC50. Here is the method:
The cell lines used to evaluate compounds consist of a human hepatocyte derived cell line (Huh-7) that constitutively expresses a genotype 1b (Con-1) HCV replicon or a genotype 1b (Con-1) HCV replicon with an asparagine replacing the cysteine at amino acid 316, or a genotype 2a (JFH-1) replicon, containing a Renilla luciferase reporter gene. These cells were maintained in Dulbecco's modified Eagle medium (DMEM) containing 10% FBS, 100 U/mL penicillin/streptomycin and 1.0 mg/mL G418.
HCV Replicon Luciferase Assay.
After 3 days incubation at 37° C., cells were analyzed for Renilla Luciferase activity using the EnduRen substrate (Promega cat #E6485) according to the manufacturer's directions. Briefly, the EnduRen substrate was diluted in DMEM and then added to the plates to a final concentration of 7.5 μM. The plates were incubated for at least 1 h at 37° C. then read on a Viewlux Imager (PerkinElmer) using a luminescence program.
Background: Replicon systems follow genome replication, usually without infectious particles.

HCV NS5B genotype 1b (Con1), sequence (Q9WMX2 2420-2992): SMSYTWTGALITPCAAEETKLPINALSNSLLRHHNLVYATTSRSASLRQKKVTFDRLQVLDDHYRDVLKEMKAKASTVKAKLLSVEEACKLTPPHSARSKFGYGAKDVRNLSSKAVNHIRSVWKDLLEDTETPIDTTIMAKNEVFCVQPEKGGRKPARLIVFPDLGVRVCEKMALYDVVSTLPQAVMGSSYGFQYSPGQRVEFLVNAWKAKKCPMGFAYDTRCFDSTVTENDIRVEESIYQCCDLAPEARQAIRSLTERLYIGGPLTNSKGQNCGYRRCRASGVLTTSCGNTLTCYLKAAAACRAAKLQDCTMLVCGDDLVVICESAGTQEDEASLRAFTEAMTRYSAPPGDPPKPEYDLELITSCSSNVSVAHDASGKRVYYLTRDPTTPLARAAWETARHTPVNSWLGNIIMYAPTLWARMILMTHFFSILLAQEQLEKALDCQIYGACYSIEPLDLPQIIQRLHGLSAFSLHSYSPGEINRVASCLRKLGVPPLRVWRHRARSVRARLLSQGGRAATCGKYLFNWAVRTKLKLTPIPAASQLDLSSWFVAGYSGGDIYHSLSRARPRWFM

Regarding `CNC(=O)c1c(-c2ccc(F)cc2)oc2cc(N(CCO)S(C)(=O)=O)c(C3CC3)cc12` [HCV-796], in the data set with HCV, the hepatic toxicity result is listed as “hepatic toxicity”. The molecule `CCOc1cc2oc(-c3ccc(F)cc3)c(C(=O)NC)c2cc1-c1ccc(CC)c(C(=O)NC(C)(C)c2ncon2)c1` [Example 24, 5-(3-((2-(1,2,4-oxadiazol-3-yl)propan-2-yl)carbamoyl)-4-ethylphenyl)-6-ethoxy-2-(4-fluorophenyl)-N-methylbenzofuran-3-carboxamide] had an IC50 in data set [1] greater than 2500 nM. Further, the EC50 in data set [2] was determined as 280 nM. For `CNC(=O)c1c(-c2ccc(F)cc2)oc2cc(OCC(C)C)c(-c3ccc(OC)c(C(=O)NC(C)(C)c4ncon4)c3)cc12` [Example 26, 5-(3-((2-(1,2,4-oxadiazol-3-yl)propan-2-yl)carbamoyl)-4-methoxyphenyl)-2-(4-fluorophenyl)-6-isobutoxy-N-methylbenzofuran-3-carboxamide], in that order: 30 nM and 80 nM.

For `CCCOc1cc2oc(-c3ccc(F)cc3)c(C(=O)NC)c2cc1-c1ccc(OC)c(C(=O)NC(C)(C)c2ncon2)c1` [Example 25, 5-(3-((2-(1,2,4-oxadiazol-3-yl)propan-2-yl)carbamoyl)-4-methoxyphenyl)-2-(4-fluorophenyl)-N-methyl-6-propoxybenzofuran-3-carboxamide], the midpoint of inhibition in data set [1], the IC50, lay at 2.48 nM. Further, in data set [2], the EC50 worked out at 6.23 nM. For `CNC(=O)c1c(-c2ccc(F)cc2)oc2cc(OCC(F)(F)F)c(-c3ccc(F)c(C(=O)NC45CC(C4)C5)c3)cc12` [Example 4, 5-(3-(Bicyclo[1.1.1]pentan-1-ylcarbamoyl)-4-fluorophenyl)-2-(4-fluorophenyl)-N-methyl-6-(2,2,2-trifluoroethoxy)benzofuran-3-carboxamide], in that order: 3.88 nM and 8.61 nM.

Regarding `[2H]C([2H])([2H])Oc1ccc(-c2cc3c(C(=O)NC)c(-c4ccc(F)cc4)oc3cc2OCC)cc1C(=O)NC(C)(C)C#N` [Example 28, 5-(3-((2-cyanopropan-2-yl)carbamoyl)-4-(methoxy-d3)phenyl)-6-ethoxy-2-(4-fluorophenyl)-N-methylbenzofuran-3-carboxamide], in data set [1], the IC50 amounted to 2.04 nM. Besides, the EC50 in data set [2] came to 2.01 nM. For `CNC(=O)c1c(-c2ccc(F)cc2)oc2cc(OCC(F)(F)F)c(-c3cccc(C(=O)NC4(C#N)CC4)c3)cc12` [Example 8, 5-(3-((1-Cyanocyclopropyl)carbamoyl)phenyl)-2-(4-fluorophenyl)-N-methyl-6-(2,2,2-trifluoroethoxy)benzofuran-3-carboxamide], in that order: 4.97 nM and 20 nM. For `CNC(=O)c1c(-c2ccc(F)cc2)oc2cc(OCC(F)F)c(-c3cccc(C(=O)NC(C)(C)c4ncon4)c3)cc12` [Example 19, 5-(3-((2-(1,2,4-Oxadiazol-3-yl)propan-2-yl)carbamoyl)phenyl)-6-(2,2-difluoroethoxy)-2-(4-fluorophenyl)-N-m ethylbenzofuran-3-carboxamide], in that order: 4.2 nM and 7.41 nM. `CNC(=O)c1c(-c2ccc(F)cc2)oc2cc(OCC(F)(F)F)c(-c3ccc(OC)c(C(=O)NC4(c5ncccn5)CC4)c3)cc12` [Example 2, 2-(4-Fluorophenyl)-5-(4-methoxy-3-((1-(pyrimidin-2-yl)cyclopropyl)carbamoyl)phenyl)-N-methyl-6-(2,2,2-trifluoroethoxy)benzofuran-3-carboxamide] registered an IC50 in data set [1] of 4.15 nM. Moreover, in data set [2], the EC50 was 6.24 nM.

For `CNC(=O)c1c(-c2ccc(F)cc2)oc2cc(OC(C)C)c(-c3ccc(OC)c(C(=O)NC(C)(C)c4ncon4)c3)cc12` [Example 23, 5-(3-((2-(1,2,4-Oxadiazol-3-yl)propan-2-yl)carbamoyl)-4-methoxyphenyl)-2-(4-fluorophenyl)-6-isopropoxy-N-methylbenzofuran-3-carboxamide], the IC50 in data set [1] came out at 7.14 nM. In data set [2], the EC50 turned out to be 10 nM.

As to `CCOc1cc2oc(-c3ccc(F)cc3)c(C(=O)NC)c2cc1-c1cccc(C(=O)NC2(c3ncccn3)CC2)c1` [Example 7, 6-Ethoxy-2-(4-fluorophenyl)-N-methyl-5-(3-((1-(pyrimidin-2-yl)cyclopropyl)carbamoyl)phenyl)benzofuran-3-carboxamide], the half-inhibitory concentration (IC50) in data set [1] was 5.78 nM. Further, the EC50 in data set [2] came to 10 nM. For `CNC(=O)c1c(-c2ccc(F)cc2)oc2cc(OCC(F)(F)F)c(-c3ccc(F)c(C(=O)NC4(c5ncccn5)CC4)c3)cc12` [Example 3, 5-(4-Fluoro-3-((1-(pyrimidin-2-yl)cyclopropyl)carbamoyl)phenyl)-2-(4-fluorophenyl)-N-methyl-6-(2,2,2-trifluoroethoxy)benzofuran-3-carboxamide], in that order: 4.38 nM and 6.7 nM. For `CNC(=O)c1c(-c2ccc(F)cc2)oc2cc(OCC(F)(F)F)c(-c3cnc(OC)c(C(=O)NC4(c5ncccn5)CC4)c3)cc12` [Example 29, 5-(2-(4-Fluorophenyl)-3-(methylcarbamoyl)-6-(2,2,2-trifluoroethoxy)benzofuran-5-yl)-2-methoxy-N-(1-(pyrimidin-2-yl)cyclopropyl)nicotinamide], the IC50 in data set [1] amounted to 2.95 nM. Also, the EC50 in data set [2] turned out to be 4.57 nM.
